Values quoted from earlier work in patent US6451782B1, “Use of 4-androstene-3alpha,17 beta-diol to increase testosterone levels in humans” (priority 2002, dated 2002).
Like-named read-outs stand apart in the source and are kept apart here.

Columns and labels:
[1] = humans, intravenous, radio-labeled, urinary metabolites
[2] = in-vitro, rat liver preparations
[3] = in-vitro, chicken liver preparations
[4] = humans

SMILES | metabolic relationship to testosterone [1] | identified metabolites [2] | identified metabolites [3] | time to peak concentration of active hormone (testosterone) ([4]; after administration of the precursor) | period over which testosterone concentrations subsequently decline ([4]; after the peak) | pathway of metabolism to androstane metabolites [1]
C[C@]12CC[C@H]3[C@@H](CCC4=CC(O)CC[C@@]43C)[C@@H]1CC[C@@H]2O (stereo partly drawn) [4-androstene-3,17beta-diol] | direct precursor relationship to testosterone | androstenedione, epitestosterone and testosterone | androstenedione, epitestosterone and testosterone | ≤ 90 min | three to four | –
C[C@]12CC[C@H]3[C@@H](CCC4=C[C@H](O)CC[C@@]43C)[C@@H]1CC[C@@H]2O [4-androstene-3alpha, 17beta-diol] | direct precursor relationship to testosterone | androstenedione, epitestosterone and testosterone | androstenedione, epitestosterone and testosterone | – | – | involved first its conversion to a 3-keto steroid
